According to DBAASP:
≈ marks a conversion by molar mass, not a printed value.

Tests used:
Experiment in all cases: ≥ marks a high value that may be exact or a test limit, other limits are often not marked, values filed in µg/mL are converted to µM
[1] = test system: Pseudomonas putida ATCC 17426
[2] = test system: Bacillus subtilis ATCC 62037
[3] = test system: Streptococcus mutans ATCC 25175
[4] = test system: Salmonella enterica subsp. enterica serovar Enteritidis ATCC 13076
[5] = test system: Candida albicans ATCC 10231
[6] = test system: Escherichia coli ATCC 27325
[7] = test system: Cryptococcus neoformans ATCC 34881
[8] = test system: Saccharomyces cerevisiae ATCC 44774
[9] = test system: Staphylococcus aureus ATCC 15752
[10] = test system: Saccharomyces cerevisiae Y190
[11] = test system: Acinetobacter sp. DSM 586
[12] = test system: Escherichia coli DSM 1116
Escherichia coli MH1 = test system: Escherichia coli MH1
[13] = test system: Escherichia coli DH5alpha
[14] = test system: Staphylococcus xylosus DSM 20267
[15] = test system: Bacillus subtilis VKM B-501
[16] = test system: Arthrobacter globiformis VKM Ac-1112
[17] = test system: Bacillus subtilis subsp. spizizenii DSM 347
[18] = test system: Pseudomonas aeruginosa PAO1
[19] = test system: Staphylococcus aureus ATCC 25923
[20] = test system: Malassezia furfur KCTC 7744
[21] = test system: Enterococcus faecium ATCC 19434
[22] = test system: Aspergillus flavus KCTC 1375
[23] = test system: Pseudomonas aeruginosa ATCC 27853
Escherichia coli = test system: Escherichia coli
Pseudomonas aeruginosa = test system: Pseudomonas aeruginosa
Staphylococcus aureus = test system: Staphylococcus aureus
[24] = test system: Candida albicans ATCC 90028
[25] = test system: Escherichia coli O157:H7 ATCC 43895
Enterococcus faecium = test system: Enterococcus faecium

CC[C@H](C)[C@H](NC(=O)[C@@H]1CCCN1C(=O)[C@H](Cc1c[nH]c2ccccc12)NC(=O)[C@H](CCC(N)=O)NC(=O)[C@H](CCCN=C(N)N)NC(=O)[C@@H](NC(=O)[C@@H](NC(=O)[C@@H](N)CCCN=C(N)N)C(C)C)C(C)C)C(=O)NCC(=O)N[C@@H](CCCN=C(N)N)C(=O)N[C@H](C(=O)N[C@H](C(=O)N[C@@H](CCCN=C(N)N)C(=O)N[C@@H](CCCN=C(N)N)C(=O)N[C@H](C(=O)N[C@H](C(=O)N[C@@H](CCCN=C(N)N)C(=O)N[C@@H](CCCN=C(N)N)C(=O)N[C@H](C(=O)N[C@H](C(=O)N[C@@H](CCCN=C(N)N)C(=O)O)C(C)C)C(C)C)C(C)C)C(C)C)C(C)C)C(C)C [RVVRQWPIGRVVRRVVRRVVR]
MIC [1]: 0.379 µM (≈ 1 µg/mL) | MIC [2]: 0.535 µM (≈ 1.41 µg/mL) | MIC [3]: 0.535 µM (≈ 1.41 µg/mL) | MIC [4]: 0.535 µM (≈ 1.41 µg/mL) | MIC [5]: 0.379 µM (≈ 1 µg/mL) | MIC [6]: 0.268 µM (≈ 0.707 µg/mL) | MIC [7]: 0.379 µM (≈ 1 µg/mL) | MIC [8]: 0.268 µM (≈ 0.707 µg/mL) | MIC [9]: 0.535 µM (≈ 1.41 µg/mL)

CC[C@H](C)[C@H](NC(=O)[C@H](Cc1ccc(O)cc1)NC(=O)[C@H](CCC(N)=O)NC(=O)[C@H](CCCCN)NC(=O)[C@H](CC(C)C)NC(=O)[C@H](CCCCN)NC(=O)[C@H](CCC(=O)O)NC(=O)CNC(=O)[C@H](CCSC)NC(=O)[C@H](CO)NC(=O)[C@H](CCCCN)NC(=O)[C@H](Cc1ccccc1)NC(=O)[C@H](CCCCN)NC(=O)[C@H](CC(=O)O)NC(=O)[C@H](CCCCN)NC(=O)[C@H](CC(C)C)NC(=O)CN)C(=O)N[C@@H](CCC(N)=O)C(=O)N[C@H](C(=O)N[C@@H](Cc1c[nH]c2ccccc12)C(=O)N[C@@H](CCCCN)C(=O)N[C@@H](C)C(=O)N[C@@H](CCCCN)C(=O)N[C@@H](Cc1ccccc1)C(N)=O)[C@@H](C)O [GLKDKFKSMGEKLKQYIQTWKAKF]
MIC [10]: 18 µM (≈ 52.2 µg/mL) | MIC [11]: 2.76 µM (≈ 8 µg/mL) | MIC [12]: 11 µM (≈ 32 µg/mL) | MIC (Escherichia coli MH1): 3.2 µM (≈ 9.29 µg/mL) | MIC [13]: 4.5 µM (≈ 13.1 µg/mL) | MIC [14]: 1.38 µM (≈ 4 µg/mL) | MIC [15]: 1.1 µM (≈ 3.19 µg/mL) | MIC [16]: 0.3 µM (≈ 0.871 µg/mL) | MIC [17]: 2.76 µM (≈ 8 µg/mL) | MIC [18]: > 35 µM

CC(C)C[C@H](NC(=O)[C@H](C)NC(=O)[C@H](C)NC(=O)[C@H](CCCCN)NC(=O)CNC(=O)[C@@H](NC(=O)[C@H](Cc1cnc[nH]1)NC(=O)[C@H](CCCCN)NC(=O)CNC(=O)[C@@H](NC(=O)[C@H](Cc1cnc[nH]1)NC(=O)[C@H](C)NC(=O)[C@H](C)NC(=O)[C@H](CCCCN)NC(=O)[C@H](CCCCN)NC(=O)[C@H](Cc1ccccc1)NC(=O)[C@H](Cc1ccccc1)NC(=O)[C@H](CO)NC(=O)CNC(=O)[C@H](Cc1c[nH]c2ccccc12)NC(=O)CN)C(C)C)C(C)C)C(=O)N[C@H](C(N)=O)[C@@H](C)O [GWGSFFKKAAHVGKHVGKAALT]
MIC [19]: 10 µM (≈ 23 µg/mL) | MIC [20]: 10 µM (≈ 23 µg/mL) | MIC [21]: 10 µM (≈ 23 µg/mL) | MIC [22]: 10 µM (≈ 23 µg/mL) | MIC [23]: 7.07 µM (≈ 16.2 µg/mL) | MIC (Escherichia coli): 7.07 µM (≈ 16.2 µg/mL) | MIC (Pseudomonas aeruginosa): 10 µM (≈ 23 µg/mL) | MIC (Staphylococcus aureus): 7.07 µM (≈ 16.2 µg/mL) | MIC [24]: 10 µM (≈ 23 µg/mL) | MIC [25]: 7.07 µM (≈ 16.2 µg/mL) | MIC (Enterococcus faecium): 7.07 µM (≈ 16.2 µg/mL)
